# Assay results as given in US20170080040A1, “DECOCTION OF OLIVE LEAVES” (priority 2014, published 2017).
# What was measured:
# [1] = tested on: mice CD-1 males; test: Stimulating activity: effect on loss of straightening reflex (sleep) induced by ethanol in mice; format: in vivo; conditions: caffeine 60 mg/kg
# From the text: The antioxidant and anti-radical activity was studied on decoctions 1 and 2, respectively, by testing the decolorization of the radical cation ABTS^• (2.2′-azino-bis-3-ethylbenzothiazoline-6-sulphonic acid) (Re et al.—Free Rad. Biol. Med. 26: 1231, 1999) and by testing the neutralization of the radical 1,1-diphenyl-2-picrylhydrazyl (DPPH^•) (Brand-Williams et al.—Food Sci. Technol. 28: 25, 1995). Finally, decoctions 1 and 2 were studied for potential stimulating activity, verifying the effect on sleep induced by ethanol in mice according to the method reported by Yacoubi et al. (Yacoubi et al. —Neuropharmacology 45: 977, 2003).
# The stimulating activity of the decoctions of olive leaves was evaluated on the basis of the reduction of the hypnotic effect induced by ethanol in the mice (Yacoubi et al.—Neuropharmacology 45: 977, 2003). The animals were housed in groups of 5 and kept for at least a week in the same place where the test was carried out, at a constant temperature (23±1° C.) and relative humidity (50-60%), with a fixed artificial light cycle (07.00-19.00). The experiment was carried out in conformity with the laws in force that regulate the use of animals for scientific purposes (Italian Legislative Decree 116 of 27 Jan. 1992 and the Directives of the European Communities Council of 24 Nov. 1986/86/609/EEC).
# At the moment of the experiment, each animal was positioned individually in a cage. The lyophilized decoctions, dissolved in water, were administered to the mice (dose: 120 mg/kg; volume of solution administered: 10 ml/kg) by means of gastric intubation, 30 minutes before the inter-peritoneal injection of an aqueous composition of ethanol at 20% (v/v; 4 g/kg). The control animals were administered 10 ml/kg of physiological solution. The induction of ethanol induced sedation in the animals, with the loss of the straightening reflex. In every animal both the duration of the latency phase that elapsed between the injection of the ethanol and the loss of the straightening reflex, and the duration of the loss of the straightening reflex were measured. The stimulating activity was evaluated on the basis of both the increase in the latency phase and also on the reduction in the duration of the loss of the straightening reflex. The effect was compared to that of caffeine, at a dose of 60 mg/kg. Each treatment group consisted of 10 animals.
# The values of IC50 were calculated on the basis of the linear regression of the straight lines that put the logarithm of the concentrations tested in relation to the reduction of the absorbance measured, using the appropriate function of an electronic spreadsheet. The in vivo data were analyzed according to the Student's t-test, accepting as significant the values of p<0.05.
# The stimulating activity of decoctions 1 and 2 was evaluated in the mice, after oral administration of 120 mg/kg of lyophilized decoction (corresponding to 9.6 and 11.9) ml of decoction 1 and 2 liquid/kg), verifying the effect on the loss of straightening induced by the intraperitoneal injection of ethanol (4 g/kg). The parameters evaluated were the increase in the latency phase between the ethanol injection and the loss of the straightening reflex, and the duration of the loss of the straightening reflex (interval between the loss and the re-acquisition of the straightening reflex). As a reference compound, caffeine was used at a dose of 60 mg/kg (corresponding to an average dose of coffee equal to about 40 ml/kg).
# [2] = Antioxidant activity: decoloring test of the cationic radical ABTS•+; conditions: mg lyophilized preparation per ml; absorbance at 734 nm; four determinations
# Method: Biol. Med. 26: 1231, 1999) and by testing the neutralization of the radical 1,1-diphenyl-2-picrylhydrazyl (DPPH^•) (Brand-Williams et al.—Food Sci. Technol. 28: 25, 1995). […] (Yacoubi et al. —Neuropharmacology 45: 977, 2003). The antioxidant activity was evaluated according to the method reported by Re and collaborators (Re et al.—Free Rad. Biol. Med. 26: 1231, 1999). […] In the presence of an antioxidant the ABTS^•+ is reduced to colorless ABTS, determining a decoloring of the solution in which it is dissolved, which can be measured by spectrophotometry quantifying the absorbance at 734 nm. […] The antioxidant activity, expressed as IC50, was compared to that of Trolox, a similar water-soluble to vitamin E, and to that of an infusion of green tea, prepared with 10 g of leaves in 1 liter of water (from which 4.385 g of lyophilized infusion were obtained). For every sample four determinations were carried out and the result was expressed as average±standard deviation of the analyses done. The values of IC50 were calculated on the basis of the linear regression of the straight lines that put the logarithm of the concentrations tested in relation to the reduction of the absorbance measured, using the appropriate function of an electronic spreadsheet. The in vivo data were analyzed according to the Student's t-test, accepting as significant the values of p<0.05. […]
# [3] = mice, oral 30 min before ethanol 4 g/kg i.p., decoctions 120 mg/kg lyophilized, n = 10
# [4] = mice, oral, decoctions 120 mg/kg, ethanol 4 g/kg i.p.
SMILES,"reduction in the duration of the loss of the straightening reflex ([1]; given as positive reduction, decoctions 120 mg/kg) [%]","Duration Average ± E.S. (of the loss of the straightening reflex) [1, 3] [min]","Latency Average ± E.S. (between ethanol injection and loss of the straightening reflex) [1, 3] [s]","Duration Difference (%) with respect to the controls [1, 4] [%]","Latency Difference (%) with respect to the controls (increase in the latency period) [1, 4] [%]","Lyophilized Decoction IC50 Average ± D.S. (antioxidant activity, ABTS) [2] [µg/mL]"
"Cn1c(=O)c2c(ncn2C)n(C)c1=O [Caffeine, caffeine]",43,23.5 ± 3.3,215.7 ± 18.2,−43,48,
Cc1c(C)c2c(c(C)c1O)CCC(C)(C(=O)O)O2 (stereo not drawn) [Trolox],,,,,,30
